Three compounds from patent publication US6902926B1, “Toxoplasma gondii apical membrane antigen-1” (priority 2000, dated 2005) can be followed below.

The test relates to secretion of the 53-kDa fragment of TgAMA-1. The test can be described thus: Secretion assay: TgAMA-1 released from tachyzoites into culture supernatant, by western blot. Format: cell-based, Toxoplasma gondii. The note with it: for secretion of the 53-kDa fragment of TgAMA-1: 2-min treatment at 37° C. The protocol: Tachyzoites (2F strain, constitutively expressing cytoplasmic β-galactosidase [generous gift of David Sibley]) were washed twice in DMEM+20 mM HEPES, pH 7.0 (4 min, 1000×g, 23° C.), and resuspended in 4 ml polystyrene round bottom tubes at a concentration of 2×10^8 tachyzoites/ml. The suspension was incubated for various times at 37° C. or treated for 15 min at 23° C. with either 1.0% (v/v) DMSO or 20 μM BAPTA-AM (1.0% [v/v] DMSO final), followed by 2 min at 37° C. with 200 nM A23187 (1.0% [v/v] DMSO final) or 1.0% ethanol. Cells were pelleted (4 min, 1000×g, 4° C.) and dissolved in SDS-PAGE sample buffer. Supernatants were recentrifuged (4 min, 1000×g, 4° C.) and dissolved in sample buffer. The samples were incubated for 10 min at 100° C. and analyzed by SDS-PAGE/western blotting. Gels to be probed with either Mab B3.90 or antipeptide antiserum UVT59 were run under non-reducing conditions; blots to be probed with Mab 6D10 were run under reducing conditions. The extent of parasite lysis was determined by measuring the levels of β-galactosidase in the supernatant, as previously described.
In general terms: In western blotting, separated proteins are transferred to a membrane and probed.

Take `CC(=O)OCOC(=O)CN(CC(=O)OCOC(C)=O)c1ccccc1OCCOc1ccccc1N(CC(=O)OCOC(C)=O)CC(=O)OCOC(C)=O` [BAPTA-AM]: the “effect of pretreatment on ethanol/A23187-enhanced secretion of the 53-kDa fragment” value (pretreating the parasites before ethanol or A23187) is “abrogated”. Consider `CCO` [ethanol], for which the “secretion of the 53-kDa fragment of TgAMA-1” value was “dramatically enhanced”. With `CNc1ccc2oc(C[C@H]3O[C@@]4(CC[C@H]3C)O[C@H]([C@H](C)C(=O)c3ccc[nH]3)[C@H](C)C[C@H]4C)nc2c1C(=O)O` [A23187], the “secretion of the 53-kDa fragment of TgAMA-1” value was “dramatically enhanced”.
